Where two headings read alike, the source gives them in different places.
How the values were obtained:
[1] = test system: human melanoma (A375), prostate (PC3-M) and colon (HCT116) cancer cell lines; assay: In vitro 18F-D4-choline uptake in cancer cell lines; type: cell-based; settings: hemicholinium-3 5 mM, 18F-D4-choline uptake, all three cell lines
Method: Uptake was measured in vehicle-treated (closed symbols) and hemicholinium-3-treated cells (5 mM; open symbols). Mean values+SEM are shown (n=3). Insert: representative western blot of choline kinase-α expression in the three cell lines. Actin was used as a loading control. Abbreviations: CKα, choline kinase alpha.
Cells (5×10^5) were plated into 6-well plates the night prior to analysis. On the day of the experiment, fresh growth medium, containing 40 μCi ^18F-D4-choline, was added to individual wells. Cell uptake was measured following incubation at 37° C. in a humidified atmosphere of 5% CO2 for 60 min. Plates were subsequently placed on ice, washed 3 times with ice-cold PBS and lysed in RIPA buffer (Thermo Fisher Scientific Inc., Rockford, Ill., USA; 1 mL, 10 min). […] Aliquots were snap-frozen and used for protein determination following radioactive decay using a BCA 96-well plate assay (Thermo Fisher Scientific Inc., Rockford, Ill., USA). Data were expressed as percent of total radioactivity per mg protein. For hemicholinium-3 treatment (5 mM; Sigma-Aldrich), cells were incubated with the compound 30 min prior to addition of radioactivity and for the duration of the uptake time course. […]

HCT116 tumors [2] = settings: mouse, in vivo
Method: (§1) Radiolabeled metabolites from plasma and tissues were quantified using a method adapted from Smith G, Zhao Y, Leyton J, et al. Radiosynthesis and pre-clinical evaluation of [(18)F]fluoro-[1,2-(2)H(4)]choline. Nucl Med Biol. 2011; 38:39-51. Briefly, tumor-bearing mice under terminal anaesthesia were administered a bolus i.v. injection of one of the following radiotracers: ^11C-choline, ^11C-D4-choline (˜18.5 MBq) or ^18F-D4-choline (˜3.7 MBq), and sacrificed by exsanguination via cardiac puncture at 2, 15, 30 or 60 min post radiotracer injection. For automated radiosynthesis methodology, see Example 22. Tumor, kidney and liver samples were immediately snap-frozen in liquid nitrogen. Aliquots of heparinized blood were rapidly centrifuged (14000 g, 5 min, 4° C.) to obtain plasma. Plasma samples were subsequently snap-frozen in liquid nitrogen and kept on dry ice prior to analysis.
(§2) For analysis, samples were thawed and kept at 4° C. immediately before use. To ice cold plasma (200 μl) was added ice cold methanol (1.5 mL) and the resulting suspension centrifuged (14000 g; 4° C.; 3 min). The supernatant was then decanted and evaporated to dryness on a rotary evaporator (bath temperature, 40° C.), then resuspended in HPLC mobile phase (Solvent A: acetonitrile/water/ethanol/acetic acid/1.0 M ammonium acetate/0.1 M sodium phosphate [800/127/68/2/3/10]; 1.1 mL). Samples were filtered through a hydrophilic syringe filter (0.2 μm filter; Millex PTFE filter, Millipore, Mass., USA) and the sample (˜1 mL) then injected via a 1 mL sample loop onto the HPLC for analysis. Tissues were homogenized in ice-cold methanol (1.5 mL) using an Ultra-Turrax T-25 homogenizer (IKA Werke GmbH and Co. KG, Staufen, Germany) and subsequently treated as per plasma samples.
(§3) Samples were analyzed on an Agilent 1100 series HPLC system (Agilent Technologies, Santa Clara, Calif., USA), configured as described above, using the method of Leyton J, Smith G, Zhao Y, et al. [18F]fluoromethyl-[1, 2-2H4]-choline: a novel radiotracer for imaging choline metabolism in tumors by positron emission tomography. Cancer Res. 2009; 69:7721-7728. A μBondapak C18 HPLC column (Waters, Milford, Mass., USA; […]), stationary phase and a mobile phase comprising of Solvent A (vide supra) and Solvent B (acetonitrile/water/ethanol/acetic acid/1.0 M ammonium acetate/0.1 M sodium phosphate (400/400/68/44/88/10)), delivered at a flow rate of 3 mL/min were used for analyte separation. The gradient was set as follows: 0% B for 5 min; 0% to 100% B in 10 min; 100% B for 0.5 min; 100% to 0% B in 2 min; 0% B for 2.5 min.
^11C-choline, ^11C-D4-choline and ^18F-D4-choline metabolism were measured in HCT116 tumors (FIG. 22).

HCT116 tumors [3] = settings: HCT116 tumors, dynamic PET
Method: Dynamic ^11C-choline, ^11C-D4-choline and ^18F-D4-choline imaging scans were carried out on a dedicated small animal PET scanner (Siemens Inveon PET module, Siemens Medical Solutions USA, Inc., Malvem, Pa., USA) following a bolus i.v. injection in tumor-bearing mice of either ˜3.7 MBq for ^18F studies, or ˜18.5 MBq for ^11C. Dynamic scans were acquired in list mode format over 60 min. The acquired data were then sorted into 0.5 mm sinogram bins and 19 time frames for image reconstruction (4×15 s, 4×60 s, and 11×300 s), which was done by filtered back projection. For input function analysis, data were sorted into 25 time frames for image reconstruction (8×5 s, 1×20 s, 4×40 s, 1×80 s, and 11×300 s). The Siemens Inveon Research Workplace software was used for visualization of radiotracer uptake in the tumor; 30 to 60 min cumulative images of the dynamic data were employed to define 3-dimensional (3D) regions of interest (ROIs). Arterial input function was estimated as follows: a single voxel 3D ROI was manually drawn in the center of the heart cavity using 2 to 5 min cumulative images. Care was taken to minimize ROI overlap with the myocardium. The count densities were averaged for all ROIs at each time point to obtain a time versus radioactivity curve (TAC). Tumor TACs were normalized to injected dose, measured by a VDC-304 dose calibrator (Veenstra Instruments, Joure, The Netherlands), and expressed as percentage injected dose per mL tissue. The area under the TAC, calculated as the integral of % ID/mL from 0-60 min, and the normalized uptake of radiotracer at 60 min (% ID/mL60) were also used for comparisons.
(§4) A 2-tissue irreversible compartmental model was employed to fit the TACs, as has been previously established for ^11C-choline (Kenny L M, Contractor K B, Hinz R, et al. Reproducibility of [11C]choline-positron emission tomography and effect of trastuzumab. Clin Cancer Res. Aug. 15 2010; 16(16):4236-4245; and Sutinen E, Nurmi M, Roivainen A, et al. Kinetics of [(11)C]choline uptake in prostate cancer: a PET study. Eur J Nucl Med Mol. Imaging. March 2004; 31(3):317-324). An estimate of the whole blood TAC (wbTAC(t)) was derived from the PET image itself, as described above. […] Therefore it was fitted with a sum of 3 exponentials from the peak on and the fitted function was used as input function in the kinetic modeling (after metabolite correction, see below). […] The pf values were fitted to a sum of two exponentials with the constraint pf(t=0)=1 to obtain the function pf(t). The parent whole blood TAC wbTACPAR(t) was then computed by multiplying wbTAC(t) and pf(t) and used as input function to estimate the parameters K1 (mL/cm^3/min), k2 (1/min), k3 (1/min) and Vb (unitless). The steady state net irreversible uptake rate constant Ki (mL/cm^3/min) was calculated from the estimated microparameters as K1k3/(k2+k3).

[4] = mouse, in vivo
Method: as §1, §2, §3
as §4, with “pf(t).” for “pf(t). The parent whole blood TAC wbTACPAR(t) was then computed by multiplying wbTAC(t) and pf(t) and used as input function to estimate the parameters K1 (mL/cm^3/min), k2 (1/min), k3 (1/min) and Vb (unitless). The steady state net irreversible uptake rate constant Ki (mL/cm^3/min) was calculated from the estimated microparameters as K1k3/(k2+k3).”

[5] = mouse, in vivo; remark: listed apart in the source
Method: ^11C-choline, ^11C-D4-choline (˜18.5 MBq) and ^18F-D4-choline (˜3.7 MBq) were each injected via the tail vein of anaesthetized BALB/c nude mice. The mice were maintained under anesthesia and sacrificed by exsanguination via cardiac puncture at 2, 15, 30 or 60 min post radiotracer injection to obtain blood, plasma, heart, lung, liver, kidney and muscle. Tissue radioactivity was determined on a gamma counter (Cobra II Auto-Gamma counter, Packard Biosciences Co, Pangbourne, UK) and decay corrected. Data were expressed as percent injected dose per gram of tissue.
Time course biodistribution was performed in non-tumor-bearing male nude mice with ^11C-choline, ^11C-D4-choline and ^18F-D4-choline tracers.

Row | SMILES | decrease in intracellular tracer radioactivity [1] [%] | tumor betaine-to-phosphocholine metabolite ratio increase compared to 18F-D4-choline (HCT116 tumors [2]; BALB/c nude) [%] | increase in the ratio of betaine:phophocholine in comparison to 18F-D4-choline (HCT116 tumors [2]; BALB/c nude, 15 min) [%] | tumor radioactivity corresponding to phosphocholine (HCT116 tumors [2]; BALB/c nude, 15 min) [%] | increase in the ratio of betaine:phophocholine in comparison to 18F-D4-choline (HCT116 tumors [2]; BALB/c nude, 60 min) [%] | tumor betaine radioactivity (HCT116 tumors [2]; BALB/c nude, 60 min) [%] | tumor tracer kinetics between 30 and 60 min (HCT116 tumors [3]) | liver radioactivity as betaine ([4]; BALB/c nude, 2 min) [%] | plasma radioactivity in the form of betaine ([4]; BALB/c nude, 2 min) [%] | plasma radioactivity in the form of betaine ([4]; BALB/c nude, 15 min) [%] | tumor betaine-to-phosphocholine metabolite ratio increase compared to 18F-D4-choline (HCT116 tumors [2]) [%] | tumor radioactivity corresponding to phosphocholine (HCT116 tumors [2]) [%] | increase in kidney retention compared to 11C-choline [5] [fold] | urinary excretion [5] | liver radioactivity as betaine [4] [%]
1 | C[N+]1(C)CCOC(O)(c2ccc(-c3ccc(C4(O)C[N+](C)(C)CCO4)cc3)cc2)C1.[Br-].[Br-] (stereo not shown) [hemicholinium-3, reference compound] | > 90 |  |  |  |  |  |  |  |  |  |  |  |  |  | 
2 | C[N+](C)([11CH3])CCO [^11C-choline, reference compound] |  | 388 | 388 | 30.5±4.0 | 230 | 28.1±2.9 | gradual accumulation | 49.2±7.7 | 12.1±2.6 | 78.6±4.4 |  |  |  |  | 
3 | [2H]C([2H])(O)C([2H])([2H])[N+](C)(C)[11CH3] [^11C-D4-choline, ^11C-[1,2-^2H4]choline] |  |  |  |  |  |  | Slow wash-out of activity |  |  |  | 259 | 43.8±1.5 | 1.8 | trend towards increased urinary excretion | 24.5±2.1
